Results from patent US20250195457A1, “PHARMACEUTICAL COMPOSITION FOR TREATMENT OF PARKINSON'S DISEASE” (Eisai R&D Management Co., Ltd., priority 2022, published 2025).

Legend:
various animal models = settings: cited from earlier work
mouse kindling model = settings: anti-seizure effect (ED50) in mouse kindling model versus neurotoxic effect (TD50) in rotarod test; compared with a control compound; cited from earlier work
[1] = test system: levodopa-induced dyskinesia model cynomolgus monkeys; test: Test Example 3: dyskinesia score in levodopa-induced dyskinesia model monkeys; assay type: in vivo; design: key to Dyskinesia score: dyskinesia score 0 = normal home cage activity to 4 = severe stereotypy
Method: A levodopa/carbidopa mixture containing 80 mg/kg of levodopa and 20 mg/kg of carbidopa and having a solution volume of 5 mL/kg was orally administered to Parkinson's disease model cynomolgus monkeys at the age of 6 to 7 prepared in the same way as in Test Example 1 for 8 consecutive days to provide levodopa-induced dyskinesia model cynomolgus monkeys. The induction of dyskinesia was determined based on the “dyskinesia score” in accordance with the following behavior evaluation items in the following test on activity in home cages, and animals having dyskinesia scores of 1 or more on day 7 of the repeated administration of the levodopa/carbidopa mixture were used.
Home cage activities corresponding to dyskinesia scores • 0: Normal home cage activity (exploring or inactivity, able to drink water, plays with mirror or caging, climbing of the walls). • 1: Some interference with normal activity, however able to climb walls. • 2: Occasional exploration of cage, some stereotypy • 3: Little normal movement, lack of climbing of walls, clear stereotypy • 4: Lack of normal home cage activity, lack of normal exploratory behavior and movement, severe stereotypy
Seven levodopa-induced dyskinesia model cynomolgus monkeys were randomized into 4 groups of approximately equal mean and variance in terms of body weight. On subsequent cycles 2, 3, and 4, the animals were crossed over to receive the other treatment. A wash out period of one week or more was set between cycles.
One of the seven animals was excluded from the evaluation of cycles 3 and 4 because it was unable to get up due to dyskinesia on day 8 in cycle 3 of the repeated administration of the levodopa/carbidopa mixture.
By the end of the study, each animal had received all the four treatments. Each substance was administered 1 hr. after the administration on day 8 of the repeated administration of the levodopa/carbidopa mixture. As a vehicle, an aqueous solution containing 0.43% (w/v) methyl cellulose 400, 10% (v/v) dimethyl sulfoxide (DMSO), and 4.5% (w/v) Cremophor (R) were used.
Before the administration, and 1 hr., 4 hrs., and 24 hrs. after the administration of the test substances, the dyskinesia scores of the animals were evaluated. The behavior evaluation was performed in a blinded manner. The dyskinesia scores of the groups were compared using Steel's test. The p-values of less than 0.05 were considered to be statistically significant.

NS(=O)(=O)N[C@H]1c2c(F)cc(F)cc2CC1(F)F [Compound (I), N-[(1S)-2,2,5,7-tetrafluoro-2,3-dihydro-1H-inden-1-yl]sulfamide]
analgesic effect (various animal models): exhibit an analgesic effect | therapeutic index (TD50/ED50) (mouse kindling model): higher | Dyskinesia score ([1]; Compound (I) 25 mg/kg (G2), 1 hr. after administration): 2.0 ± 0.0 | Dyskinesia score ([1]; Compound (I) 25 mg/kg (G2), 4 hrs. after administration): 1.6 ± 0.2 | Dyskinesia score ([1]; Compound (I) 25 mg/kg (G2), 24 hrs. after administration): 2.0 ± 0.0 | Dyskinesia score ([1]; Compound (I) 25 mg/kg (G2), Pre (before administration)): 1.7 ± 0.2 | Dyskinesia score ([1]; Compound (I) 50 mg/kg (G3), 1 hr. after administration): 1.8 ± 0.2 | Dyskinesia score ([1]; Compound (I) 50 mg/kg (G3), 4 hrs. after administration): 1.3 ± 0.2 | Mean value of the dyskinesia scores compared with other groups ([1]; Compound (I) 50 mg/kg (G3), 4 hrs. after the administration, versus vehicle (G1) and istradefylline (G4)): lower as compared with the vehicle-treated group (G1) and the istradefylline-treated group (G4) | Dyskinesia score ([1]; Compound (I) 50 mg/kg (G3), 24 hrs. after administration): 1.8 ± 0.2 | Dyskinesia score ([1]; Compound (I) 50 mg/kg (G3), Pre (before administration)): 1.7 ± 0.2
